The text below walks through data of patent publication US6603014B1, “Use of cyclic enamines as light protection agents” (BASF Aktiengesellschaft, priority 1999, dated 2003).

The nature of this data set: UV absorption properties (λmax and specific absorbance E 1/1) of the light protection agents. Further details: unit not given here. The format is physicochemical. The source says:
Further Examples 2 to 23 as in Tables 1, 2 and 3 are obtained analogously. Substituents in the aromatic rings can also be introduced later.

[1] abbreviates: Table 1, specific absorbance at λmax.
The mark [2] stands for this setting: Table 3, specific absorbance at λmax.
Where [3] appears, read: Table 2, specific absorbance at λmax.

Consider `COc1ccc2c(c1)NC(=C(C#N)C#N)N2` [Example 4], for which the λmax (Table 1, UV absorption maximum) came out at 326. The “E^11” value under setting [1] is 1784.

The compound `COC(=O)C(C#N)=C1Nc2ccc(OC)cc2N1` [Example 5] displayed a λmax (Table 1, UV absorption maximum) of 328. Further, under setting [1], the “E^11” value came to 1601.

`COC(=O)C(C#N)=c1[nH]c2cccc3cccc([nH]1)c32` [Example 24] returned a λmax (Table 3, UV absorption maximum) of 296. The “E^11” value under setting [2] came out at 1503.

For the compound `CC1CC(OC(=O)C(C#N)=C2Sc3ccccc3N2C)CC(C)(C)C1` (stereo not shown) [Example 14], where the note is “Table 2, UV absorption maximum”, the λmax is 340. Besides, the “E^11” value under setting [3] is listed as 1090.

Where the note is “Table 1, UV absorption maximum”, `N#CC(C#N)=C1Nc2ccccc2O1` [Example 10] came in with a λmax of 308. For the same compound, the “E^11” value under setting [1] is given as 1844.

Under “Table 1, UV absorption maximum”, `CCOC(=O)c1ccc2c(c1)NC(=C(C#N)C#N)N2` [Example 6] returned a λmax of 334. Further, the “E^11” value under setting [1] was determined as 821.

For `CCOC(=O)c1ccc2c(c1)NC(=C(C#N)C(=O)OC)N2` [Example 7], the λmax (Table 1, UV absorption maximum) is 332. Under setting [1], the “E^11” value was found to be 952.

Consider `CCCCOC(=O)C(C#N)=C1Sc2ccccc2N1CCCC` [Example 18], for which, under “Table 2, UV absorption maximum”, the λmax turned out to be 340. Under setting [3], the “E^11” value stood at 1250.

As to `COC(=O)C(C#N)=C1Nc2ccccc2O1` [Example 11], where the note is “Table 1, UV absorption maximum”, the λmax was determined as 310. In addition, under setting [1], the “E^11” value is 1778.

`CN1/C(=C(\C#N)C(=O)OCCS(=O)(=O)O)Sc2ccccc21` [Example 23] returned a λmax (Table 3, UV absorption maximum) of 340. For the same compound, the “E^11” value under setting [2] was 1160.

For `CCCCC(CC)COC(=O)/C(C#N)=C1\Sc2ccccc2N1C` (stereo not shown) [Example 13], the λmax (Table 2, UV absorption maximum) stood at 340. Besides, the “E^11” value under setting [3] is listed as 1150.

The compound `COC(=O)C(C#N)=C1Nc2ccc(C)cc2N1` [Example 9] showed a λmax (Table 1, UV absorption maximum) of 320. Besides, the “E^11” value under setting [1] turned out to be 1854.

For `N#CC(C#N)=C1Nc2ccccc2N1` [Example 2], under “Table 1, UV absorption maximum”, the λmax is given as 314. Under setting [1], the “E^11” value turned out to be 2297.

On to `CCCCCCN1C(=C(C#N)C(=O)OC)Sc2ccccc21` [Example 17], for which the λmax (Table 2, UV absorption maximum) was 340. For the same compound, under setting [3], the “E^11” value worked out at 1200.

Take `COC(=O)C(C#N)=C1Nc2ccccc2S1` [Example 1]: where the note is “Table 1, UV absorption maximum”, the λmax amounted to 336. Under setting [1], the “E^11” value worked out at 1723.

In turn, `CCCCCCN1C(=C(C#N)C(=O)OCC(CC)CCCC)Sc2ccccc21` (stereo not shown) [Example 15] had a λmax (Table 2, UV absorption maximum) of 340. Besides, the “E^11” value under setting [3] is 830.

Regarding `Cc1ccc2c(c1)NC(=C(C#N)C#N)N2` [Example 8], the λmax (Table 1, UV absorption maximum) was determined as 318. Further, under setting [1], the “E^11” value amounted to 2055.

In the case of `CCCCCCN1C(=C(C#N)C(=O)OC2CC(C)CC(C)(C)C2)Sc2ccccc21` (stereo not shown) [Example 16], the λmax (Table 2, UV absorption maximum) was 340. Further, under setting [3], the “E^11” value came to 790.

`CCCCCCN1C(=C(C#N)C(=O)OC)N(CCCCCC)c2ccccc21` [Example 22]: for the setting “Table 3, UV absorption maximum”, the λmax is given as 325. Also, the “E^11” value under setting [2] was 970.

Take `COC(=O)C(C#N)=C1Nc2ccccc2N1` [Example 3]: the λmax (Table 1, UV absorption maximum) stood at 316. For the same compound, the “E^11” value under setting [1] was 1986.

`N#CC(C#N)=C1Nc2ccccc2S1` [Example 12]: the λmax (Table 1, UV absorption maximum) is recorded as 334. Also, under setting [1], the “E^11” value is listed as 1776.

In the case of `COC(=O)/C(C#N)=C1\Nc2ccc(C(=O)c3ccccc3)cc2N1` [Example 21], the λmax (Table 3, UV absorption maximum) was 348. The “E^11” value under setting [2] is 740.

Take `COC(=O)/C(C#N)=C1\Sc2ccccc2N1CCCS(=O)(=O)O` [Example 20]: under “Table 3, UV absorption maximum”, the λmax is given as 340. The “E^11” value under setting [2] is reported as 1200.
